{
  "source": "patent US8895599B2",
  "about": "“Lipoprotein lipase-activating compositions comprising benzene derivates” (Otsuka Pharmaceutical Factory, Inc., priority 2008, dated 2014)",
  "key": {"[1]": {"assay": "Anti-obesity test using AKR mice (high-fat feed)", "assay_type": "in vivo", "details": "1 mg per gram of feed in high-fat feed, 7 weeks, AKR/J mice, relative to high-fat feed control group", "description": "Anti-Obesity Test Using AKR Mice\nFurthermore, this test enables the evaluation of therapeutic effects on diabetes. That is, it is reported that insulinemia can be observed in AKR/J mice when they are fed with a high-fat diet (see Am. J. Physiol. 266 (5 Pt 2), May 1994: R1423-8). It is thus known that insulinemia is strongly associated with diabetes (see, for example, J. Cardiovasc. Nurs. 16 (2), January 2002: 17-23). Therefore, this test can verify the therapeutic effects of the compounds of the present invention, used as test compounds, on diabetes.\nFor rat feed, powdered CRF-1 (Charles River Formula 1, manufactured by Oriental Yeast, Co., Ltd.) was used as normal feed. As high-fat feed, that prepared by blending CRF-1 with 18% safflower oil (Oriental Yeast, Co., Ltd.) was used.\nTest substances were blended with the high-fat feed in an amount of 1 mg per gram of CRF-1.\nAKR/J mice (from CLEA Japan, Inc.) were purchased at the age of 4 weeks. They were roughly divided into 2 groups according to body weight when the mice reached 5 weeks old. During this period, all mice were given the normal feed.\nSubsequently, the mice of one group (8 mice) continued to be fed with the normal feed (normal feed group). The mice of the other group (8×(the number of the test substances+1) mice) were given the high-fat feed (high-fat feed group).\nThe body weight of the mice of each group was measured daily. […] These mice were further reared for 7 weeks (“test substances+high-fat feed groups”; n=8 per type of test substance). Specifically, the administration of the test substances was continued for 7 weeks. A group of mice to which high-fat feed containing no test substance was continued to be given was used as a control (high-fat feed control group; n=8).\nFour hours after the feeding on the last day of the 7-week test (the last day of the test), the body weight of the mice of the “test substances+high fat feed groups” was measured. Blood was collected from the abdominal aorta of the mice using a heparinized syringe, and the leptin and insulin levels in the plasma were measured using an Elisa kit (produced by Morinaga). The mice of the other groups (normal feed group and high-fat feed control group) were reared till the last day of the test as above, and 4 hours after the last feeding on the last day of the test the measurements were performed according to the same procedures.\nThe average values of the test results (body weight, leptin level, and insulin level) of the test substances+high-fat feed groups to which the compounds prepared in Examples (Examples 10 and 58) were used as test substances (hereinbelow referred to as the “Example Compound 10-mixed high-fat feed group” and “Example Compound 58-mixed high-fat feed group”) were compared with the respective average values (standard values) of the results obtained from the mice of the high-fat control group to obtain the variations (differences). The differences were expressed as percentages in relation to the standard values. The values thus calculated were referred to as “weight change (%)”, “leptin level change (%)”, and “insulin level change (%)”. In the table below, the symbols “−” (minus) indicate that the differences are negative relative to the standard values."}, "[2]": {"assay": "Anti-obesity test using Zucker fatty rats", "assay_type": "in vivo", "details": "100 mg/kg oral, once a day over 4 weeks, relative to control group", "description": "Anti-Obesity Test Using Zucker Fatty Rats\nZucker fatty rats are obese rats discovered by Zucker et al., in 1961 as mutants among 13 M rats, which are a hybrid between 13C and M rats. These rats (fa/fa) start to appear distinctly obese from normal broods around the age of 3 weeks. As they age, the weight difference between the fatty rats and normal rats increases. Zucker fatty rats are currently kept by a variety of organizations as simple obesity models, and are readily obtainable.\nThis test was performed using this rat model to evaluate the anti-obesity action of the compounds of the invention. The preparation method of test samples and the test procedures are described below:\nThe test samples were prepared in the same manner as in Test Example 2.\nZucker fatty rats and lean rats (both from Charles River Japan) were purchased at the age of 5 weeks. They were divided into groups (10 rats per group) according to body weight when they reached 6 weeks old. After acclimatization, the administration of test samples was initiated when the rats reached 8 weeks old. Test samples were orally administered using an oral gavage so that the compounds of the invention contained in the test samples were given in an amount of 100 mg/kg body weight (test sample dosage: 5 ml/kg body weight). The test samples were administered once a day over 4 weeks at a specific time of day.\nAs a control, a group of rats were administered with the same amount of 5% aqueous gum arabic solution (5 ml/kg body weight) instead of the test samples.\nThe rats of all groups were weighed on the last day of administration. The average body weight of the rats of each test group was compared with the average body weight (standard weight) of the rats of the control group to obtain the weight variations (differences). The weight differences were expressed as percentages in relation to the standard weight. The values thus calculated are referred to as “weight change %”. When a weight difference is negative relative to the standard weight, weight change % is shown with “−” (minus).\nDuring the test period, the rats of the respective groups had free access to rat feed (“CRF-1”, manufactured by Oriental Yeast, Co., Ltd.) and water (tap water)."}},
  "data": [
    {"molecule": "COc1cc(-c2cn3ccccc3n2)ccc1OCc1ccc(Cl)cc1", "note": "[Example 10]", "values": [
      {"measurement": "Weight Change (%)", "setting": "[1]", "result": "−15", "unit": "%"},
      {"measurement": "Insulin level change (%)", "setting": "[1]; plasma", "result": "−54", "unit": "%"},
      {"measurement": "Leptin level change (%)", "setting": "[1]; plasma", "result": "−68", "unit": "%"},
      {"measurement": "melting point", "result": "141 to 143", "unit": "°C"},
      {"measurement": "Weight Change (%)", "setting": "[2]", "result": "−15", "unit": "%"}
    ]}
  ]
}
